Here are results for seven molecules from PubChem BioAssay (NCI).

Test systems include MOLT-4 leukemia; K-562 leukemia; ACHN renal; A549 NSCLC; PC-3 prostate; OVCAR-8 ovarian; T-47D breast; NCI-H23 lung; NCI-H522 lung; RPMI-8226 leukemia; MCF7 breast; HOP-92 NSCLC; M14 melanoma; HT29 colon; LOX IMVI melanoma; SR leukemia; MDA-MB-231 breast; OVCAR-5 ovarian; DU-145 prostate.
Common to all, as to assay: NCI-60 cell line screen, 48 h

Each structure is given as a SMILES string.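 Exposure lasted 48 hours, with cells grown in 96-well plates and compounds tested at five concentrations. TGI denotes the concentration required for complete inhibition of growth.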

Consider `O=C(NNC1=NCCCN1)c1ccco1`, for which the TGI in the test with MOLT-4 leukemia, in the test on K-562 leukemia, in the test with ACHN renal, in the test with A549 NSCLC, with PC-3 prostate and with OVCAR-8 ovarian was more than 100 µM each time. The TGI in the test on T-47D breast, in the test with NCI-H23 lung, in the test on NCI-H522 lung, in the test with RPMI-8226 leukemia, with MCF7 breast and with HOP-92 NSCLC was more than 100 µM in each case. Besides, the TGI with M14 melanoma, in the test with HT29 colon, in the test on LOX IMVI melanoma, in the test with SR leukemia, in the test with MDA-MB-231 breast and in the test with OVCAR-5 ovarian was more than 100 µM in each case. The same molecule returned a TGI in the test with DU-145 prostate of more than 100 µM.
`C=C1C[C@@H]2O[C@H]3[C@H]4[C@@H](C[C@@H](C)[C@@H](OC(C)=O)[C@H]42)[C@@H](C)CO[C@@]3(C)[C@H](OC(=O)CCCCCCC)C[C@H]1O`: the TGI with MOLT-4 leukemia is 52.7 µM; with K-562 leukemia, more than 100 µM; in the test on ACHN renal it was 35 µM; in the test with A549 NSCLC it was 34 µM; in the test with PC-3 prostate it was 28.7 µM; in the test on OVCAR-8 ovarian it was 31.4 µM. For the same molecule, the TGI with T-47D breast is 24.6 µM; with NCI-H23 lung it was 40.2 µM; with NCI-H522 lung it was 34.4 µM; in the test on RPMI-8226 leukemia, 42.6 µM; with MCF7 breast it was 40.4 µM; with HOP-92 NSCLC, 30.4 µM. Moreover, the TGI worked out at 35.2 µM with M14 melanoma; 46.2 µM in the test with HT29 colon; 26.6 µM in the test with LOX IMVI melanoma; 36.3 µM in the test on SR leukemia; 27 µM with MDA-MB-231 breast; 32 µM in the test on OVCAR-5 ovarian. The molecule also came in with a TGI in the test on DU-145 prostate of 28.3 µM.
On to `C/C=C/C=C\C=C/C(O)C(C)C(CCC(C)C1OC(=O)C=CC1C)OP(=O)(O)O` (stereo not drawn), for which the TGI with MOLT-4 leukemia was determined as 0.613 µM; in the test on K-562 leukemia, 0.905 µM; with ACHN renal, 1.26 µM; with A549 NSCLC, 3.83 µM; with PC-3 prostate, 0.549 µM; in the test with OVCAR-8 ovarian, 1.26 µM. The TGI was determined as 1.46 µM in the test with T-47D breast; 4.83 µM with NCI-H23 lung; 2.89 µM in the test with NCI-H522 lung; 0.491 µM with RPMI-8226 leukemia; 0.559 µM with MCF7 breast; 0.881 µM in the test on HOP-92 NSCLC. The TGI in the test with M14 melanoma was 0.685 µM; with HT29 colon, 1.08 µM; in the test with LOX IMVI melanoma it was 1.09 µM; in the test on SR leukemia, 0.511 µM; in the test with MDA-MB-231 breast, more than 71.1 µM; in the test on OVCAR-5 ovarian, 0.574 µM. Also, the TGI in the test on DU-145 prostate stood at 1.76 µM.
As to `CC(=O)Nc1cccc(N2C(=O)/C(=C\c3cccc(Oc4ccccc4)c3)S(=O)(=O)C2c2ccccc2)c1` (stereo not drawn), the TGI in the test with MOLT-4 leukemia is 62.6 µM; in the test with K-562 leukemia it was 79.2 µM; in the test with ACHN renal, more than 100 µM; in the test with A549 NSCLC, more than 100 µM; with PC-3 prostate, more than 100 µM; in the test with OVCAR-8 ovarian it was more than 100 µM. The TGI in the test with T-47D breast, in the test on NCI-H23 lung, in the test on NCI-H522 lung, in the test with RPMI-8226 leukemia, in the test with MCF7 breast and in the test with HOP-92 NSCLC was more than 100 µM in each case. For the same molecule, the TGI in the test with M14 melanoma was more than 100 µM; in the test on HT29 colon, more than 100 µM; in the test on LOX IMVI melanoma, more than 100 µM; with SR leukemia, 58.3 µM; in the test on MDA-MB-231 breast, more than 100 µM; with OVCAR-5 ovarian it was more than 100 µM. Further, in the test with DU-145 prostate, the TGI is more than 100 µM.
As to `O=C(NCCCNCCN1C(=O)c2cccc3cc([N+](=O)[O-])cc(c23)C1=O)c1cc(-c2ccccc2)nc2ccccc12`, the TGI in the test with MOLT-4 leukemia came out at 6.01 µM; in the test on K-562 leukemia, 2.5 µM; with ACHN renal it was 14.5 µM; with A549 NSCLC, 15.7 µM; in the test with PC-3 prostate it was 16.7 µM; in the test with OVCAR-8 ovarian it was 17 µM. For the same molecule, the TGI with T-47D breast was 23.7 µM; in the test on NCI-H23 lung, 7.55 µM; in the test on NCI-H522 lung, 9.95 µM; in the test with RPMI-8226 leukemia, 7.66 µM; with MCF7 breast, 6.51 µM; in the test on HOP-92 NSCLC, 15 µM. In addition, the TGI is 3.3 µM in the test with M14 melanoma; 2.84 µM in the test with HT29 colon; 2.93 µM in the test on LOX IMVI melanoma; 2.1 µM with SR leukemia; 8.17 µM in the test with MDA-MB-231 breast; 18.6 µM with OVCAR-5 ovarian. Also, the TGI in the test with DU-145 prostate stood at 17.3 µM.
Regarding `CCOC(=O)CC1(Cc2ccc(OCc3ccccc3)cc2)C(=O)OC(c2ccccc2)N1C(=O)c1ccccc1` (stereo not drawn), the TGI with MOLT-4 leukemia, with K-562 leukemia, in the test on ACHN renal, with A549 NSCLC, with PC-3 prostate and with OVCAR-8 ovarian was more than 100 µM in each case. Further, the TGI in the test with T-47D breast, in the test with NCI-H23 lung, with NCI-H522 lung, in the test on RPMI-8226 leukemia, with MCF7 breast and in the test with HOP-92 NSCLC was more than 100 µM each time. In addition, the TGI in the test on M14 melanoma, with HT29 colon, in the test with LOX IMVI melanoma, in the test with SR leukemia, in the test on MDA-MB-231 breast and with OVCAR-5 ovarian was more than 100 µM throughout. The molecule also returned a TGI with DU-145 prostate of more than 100 µM.
With `Cc1c2c(nc3ccccc13)C(=O)c1cccnc1C2=O`, the TGI in the test on MOLT-4 leukemia is 64.7 µM; with K-562 leukemia, more than 100 µM; with ACHN renal, more than 100 µM; in the test on A549 NSCLC it was 21.7 µM; with PC-3 prostate it was 73.1 µM; in the test on OVCAR-8 ovarian, 77.9 µM. Moreover, the TGI was 87.8 µM in the test on T-47D breast; 73.1 µM in the test with NCI-H23 lung; 47.8 µM in the test with NCI-H522 lung; more than 100 µM in the test on RPMI-8226 leukemia; 30.1 µM in the test with MCF7 breast; more than 100 µM in the test on HOP-92 NSCLC. Besides, the TGI was 48.8 µM in the test on M14 melanoma; 54.2 µM in the test on HT29 colon; 35.2 µM in the test on LOX IMVI melanoma; 65.6 µM in the test with SR leukemia; more than 100 µM in the test with MDA-MB-231 breast; more than 100 µM in the test on OVCAR-5 ovarian. For the same molecule, the TGI in the test with DU-145 prostate is more than 100 µM.
